The target in assay [1] is HCV NS5B (Hepatitis C virus genotype 1b (strain HC-J4), UniProt O92972). Kind of assay: biochemical. It counts as biochemical. On the procedure:
The cDNA encoding NS5B amino acid 1-570 (HC-J4, genotype 1b, pCV-J4L6S, genebank accession number AF054247) was subcloned into the Nhe I and Xho I restriction sites of pET-21b. Expression of the subsequent His-tagged C-terminal 21 amino acid deleted NS5B was performed as follows:
The NS5B expression construct was transformed into E. coli BL21(DE3) (Novagen, Madison, Wis.). Five milliliters of LB-medium supplemented with ampicillin (50 μg/mL) was inoculated with one colony. When the pre-culture reached an optical density of 0.6 measured at 600 nm, it was transferred to fresh LB-medium supplemented with ampicillin, at a ratio of 1:200. Cells were grown to an optical density at 600 nm of 0.6, after which the expression cultures were shifted to a growth temperature of 20° C. following induction with isopropyl-1-thio-β-D-galactopyranoside and MgCl2 at a final concentration of 0.4 mM and 10 μM, respectively. After ten hours of induction, cells were harvested by centrifugation and resuspended in 20 mM Tris-HCl, pH 7.5, 300 mM NaCl, 10% glycerol, 0.1% NP40, 4 mM MgCl2, 5 mM DTT supplemented with EDTA-free Complete Protease Inhibitor (Roche, Basel, Switzerland). Cell suspensions were disrupted by sonication and incubated with 10-15 mg/L of DNase I (Roche, Basel, Switzerland) for 30 minutes. Cell debris was removed through ultracentrifugation at 30,000×g for 1 hour and clarified cell lysate was flash frozen and stored at −80° C. prior to purification.
Clarified cell lysate was thawed and subsequently loaded onto a 5 mL pre-packed HisTrap FF column equilibrated with 25 mM HEPES, pH 7.5, 500 mM NaCl, 10% glycerol and 5 mM DTT. Proteins were eluted with 500 mM imidazole at a flow rate of 1 mL/min. Fractions containing the protein of interest were applied onto a pre-packed 26/10 HiPrep Desalting Column equilibrated with 25 mM HEPES, pH 7.5, 150 mM NaCl, 10% glycerol and 5 mM DTT. The buffer-exchanged NS5B peak was then applied onto a 20 mL Poly-U Sepharose column. Protein was eluted with an increasing salt gradient and fractions collected. Protein purity was assessed on Nu-PAGE pre-cast gels (Invitrogen, Carlsbad, Calif.). Purified NS5B samples were concentrated using Centri-Prep concentrators (Millipore, Billerica, Mass., USA) and protein concentrations were determined by Bradford assay (Pierce, Rockford, Ill., USA).
Measurement of HCV NS5B polymerization activity was performed by evaluating the amount of radio labeled GTP incorporated by the enzyme in a newly synthesized RNA using heteropolymeric RNA template/primer. The high-throughput RNA dependent RNA polymerase (RdRp) assay was carried out in 384-well plates using 100 nM enzyme, 300 nM 5′-biotinylated oligo(rG13)/poly(rC) primer-template, 600 nM of GTP, and 0.1 μCi of [^3H]GTP in 25 mM Tris-HCl, pH 7.5, 5 mM MgCl2, 25 mM KCl, 17 mM NaCl and 3 mM of dithiothreitol (DTT). Test compounds were dissolved in DMSO. The test compounds were added to the preformed polymerase-template complex, and incubated at room temperature for 15 min before the addition of nucleoside triphosphates (NTP). The 30 μl reaction was terminated after 2 h at 25° C. upon addition of 30 μl A PVT-SPA beads (Amersham Biosciences RPNQ0009, 5 mg/ml in 0.5 M EDTA).

In assay [2] the test system is HCV replicons (NS3-NS5B regions of HCV type 1b) in Huh-Luc cells. Kind of assay: HCV replicon assay in Huh-7 luc/neo (Huh-Luc) cells, luciferase readout. As to conditions: three days incubation, luciferase activity. It counts as cell-based. From the text: The compounds of formula (I) were examined for activity in the inhibition of HCV RNA replication in a cellular assay. […] The cellular assay was based on a bicistronic expression construct, as described by Lohmann et al. (1999) Science vol. 285 pp. 110-113 with modifications described by Krieger et al. (2001) Journal of Virology 75: 4614-4624, in a multi-target screening strategy. In essence, the method was as follows.
The assay utilized the stably transfected cell line Huh-7 luc/neo (hereafter referred to as Huh-Luc). This cell line harbors an RNA encoding a bicistronic expression construct comprising the wild type NS3-NS5B regions of HCV type 1b translated from an Internal Ribosome Entry Site (IRES) from encephalomyocarditis virus (EMCV), preceded by a reporter portion (firefly luciferase), and a selectable marker portion (neo^R, neomycine phosphotransferase). The construct is bordered by 5′ and 3′ NTRs (non-translated regions) from HCV type 1b. Continued culture of the replicon cells in the presence of G418 (neo^R) is dependent on the replication of the HCV RNA. The stably transfected replicon cells that express HCV RNA, which replicates autonomously and to high levels, encoding inter alia luciferase, were used for screening the antiviral compounds.
The replicon cells were plated in 384 well plates in the presence of the test and control compounds which were added in various concentrations. Following an incubation of three days, HCV replication was measured by assaying luciferase activity (using standard luciferase assay substrates and reagents and a Perkin Elmer ViewLux™ ultraHTS microplate imager). […] The inhibitory activity of the compound on luciferase activity was monitored on the Huh-Luc cells, enabling a dose-response curve for each test compound. EC50 values were then calculated, which value represents the amount of the compound required to decrease the level of detected luciferase activity by 50%, or more specifically, the ability of the genetically linked HCV replicon RNA to replicate.
On the technique in general: Replicon systems follow genome replication, usually without infectious particles.

Setting [3] is: 100 nM enzyme, [3H]GTP incorporation, 2 h at 25° C., read-out: IC50 (μM) Enzymatic assay.

Like-named read-outs stand apart in the source and are kept apart here. Where only a bound is given, the exact number is not on record here.

HCV NS5B, sequence (O92972 2420-3010 limits assumed): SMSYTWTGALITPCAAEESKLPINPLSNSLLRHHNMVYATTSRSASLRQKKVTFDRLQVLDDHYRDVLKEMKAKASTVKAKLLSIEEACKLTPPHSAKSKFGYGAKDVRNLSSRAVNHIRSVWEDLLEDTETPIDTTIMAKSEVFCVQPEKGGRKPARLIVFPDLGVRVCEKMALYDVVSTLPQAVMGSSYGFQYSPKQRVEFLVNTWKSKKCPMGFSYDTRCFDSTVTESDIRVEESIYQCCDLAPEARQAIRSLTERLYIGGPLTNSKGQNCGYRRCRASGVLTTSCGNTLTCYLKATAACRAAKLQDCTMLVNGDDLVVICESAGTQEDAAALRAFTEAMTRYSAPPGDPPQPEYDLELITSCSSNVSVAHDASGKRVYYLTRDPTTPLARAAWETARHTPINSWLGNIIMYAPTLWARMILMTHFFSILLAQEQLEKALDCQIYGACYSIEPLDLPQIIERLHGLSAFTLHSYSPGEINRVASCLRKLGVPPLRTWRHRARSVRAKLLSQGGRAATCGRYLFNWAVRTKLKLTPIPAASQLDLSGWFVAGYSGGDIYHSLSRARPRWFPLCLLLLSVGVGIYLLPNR

For orientation: IC50 means the concentration that gives 50% inhibition. As a reminder, the EC50 is the concentration needed to bring the measured effect to its halfway point. For `COc1ccc(Br)c(COc2ccc(-c3c(C4CCCCC4)c4ccc5cc4n3CC(=O)NCCCCCCNC5=O)cc2)c1` [Cpd 9, 18-[4-(2-bromo-5-methoxybenzyloxy)phenyl]-17-cyclohexyl-1,4,11-triaza-tricyclo[11.5.2.0^16,19]icosa-13(20),14,16(19),17-tetraene-3,12-dione], the IC50 in assay [1] (setting [3]) turned out to be 13 µM. This compound also returned an EC50 in assay [2] (Hepatitis C virus, Huh-7, 72 h) of 4.8 µM.

`CS(=O)(=O)N1CCN(c2ccc(N3CCCC3=O)cc2COc2ccc(-c3c(C4CCCCC4)c4ccc5cc4n3CC(=O)NCCC=CCS(=O)(=O)NC5=O)cc2)CC1` [Cpd 14, 17-Cyclohexyl-18-[4-[2-(4-methanesulfonyl-piperazin-1-yl)-5-(2-oxo-pyrrolidin-1-yl)-benzyloxy]-phenyl]-10,10-dioxo-10λ^6-thia-1,4,11-triaza-tricyclo-[11.5.2.0^16,19]icosa-7,13(20),14,16(19),17-pentaene-3,12-dione]: the midpoint of inhibition in assay [1], the IC50, lay at 0.88 µM. It took 2.04 µM to reach a half-maximal effect in assay [2] (Hepatitis C virus, Huh-7, 72 h) (EC50).

For `CS(=O)(=O)N1CCN(c2ccc(N3CCCC3=O)cc2COc2ccc(-c3c(C4CCCCC4)c4ccc5cc4n3CC(=O)NCC/C=C\CCNC5=O)cc2)CC1` [Cpd 12, 17-Cyclohexyl-18-[4-[2-(4-methanesulfonyl-piperazin-1-yl)-5-(2-oxo-pyrrolidin-1-yl)-benzyloxy]-phenyl]-1,4,11-triaza-tricyclo[11.5.2.0^16,19]icosa-7,13(20),14,16(19),17-pentaene-3,12-dione], in assay [1] (setting [3]), the IC50 was determined as 0.36 µM. In addition, the EC50 in assay [2] (Hepatitis C virus, Huh-7, 72 h) turned out to be 0.27 µM.

As for `CN1CCCCCNC(=O)Cn2c(-c3ccc(Cl)cc3)c(C3CCCCC3)c3ccc(cc32)C(=O)NS1(=O)=O` [Cpd 21, 19-(4-Chloro-phenyl)-18-cyclohexyl-10-methyl-11,11-dioxo-11λ^6-thia-1,4,10,12-tetraaza-tricyclo[12.5.2.017,20]henicosa-14(21),15,17(20),18-tetraene-3,13-dione], the IC50 in assay [1] (setting [3]) stood at 0.19 µM. Also, in assay [2] (Hepatitis C virus, Huh-7, 72 h), the EC50 came out at 0.59 µM.

As to `Cc1nc(C)c(-c2ccc3cc(-c4c(C5CCCCC5)c5ccc6cc5n4CC(=O)NCC/C=C\CCNC6=O)ccc3n2)s1` [Cpd 17, 17-Cyclohexyl-18-[2-(2,4-dimethyl-thiazol-5-yl)-quinolin-6-yl]-1,4,11-triaza-tricyclo[11.5.2.0^16,18]icosa-7,13(20),14,16(19),17-pentaene-3,12-dione], the IC50 in assay [1] (setting [3]) is 2.7 µM. Further, the response in assay [2] (Hepatitis C virus, Huh-7, 72 h) was half-maximal at 5.39 µM (EC50).

Turning to `CC(=O)Nc1ccc(N2CCN(S(C)(=O)=O)CC2)c(COc2ccc(-c3c(C4CCCCC4)c4ccc5cc4n3CC(=O)NCC/C=C\CCNC5=O)cc2)c1` [Cpd 5, 17-cyclohexyl-18-[4-[2-(4-methanesulfonylpiperazin-1-yl)-5-acetylamino-benzyloxy]phenyl]-1,4,11-triazatricyclo[11.5.2.0^16,19]icosa-7,13(20),14,16(19),17-pentaene-3,12-dione], the IC50 in assay [1] (setting [3]) worked out at 0.29 µM. Also, in assay [2] (Hepatitis C virus, Huh-7, 72 h), it took 0.58 µM to reach a half-maximal effect (EC50).

With `COc1ccc(-c2ccc(Cl)cc2)c(-c2ccc3cc(-c4c(C5CCCCC5)c5ccc6cc5n4CC(=O)NCC/C=C\CCNC6=O)ccc3n2)c1` [Cpd 16, 18-[2-(4′-Chloro-4-methoxy-biphenyl-2-yl)-quinolin-6-yl]-17-cyclohexyl-1,4,11-triaza-tricyclo[11.5.2.0^16,19]icosa-7,13(20),14,16(19),17-pentaene-3,12-dione], the IC50 in assay [1] (setting [3]) is 1.44 µM. The same compound yielded an EC50 in assay [2] (Hepatitis C virus, Huh-7, 72 h) of 17.6 µM.

As to `O=C1Cn2c(-c3ccoc3)c(C3CCCCC3)c3ccc(cc32)C(=O)NCCCCCCN1` [Cpd 2, 17-Cyclohexyl-18-(furan-3-yl)-1,4,11-triaza-tricyclo[11.5.2.0^16,19]icosa-13(20),14,16(19),17-tetraene-3,12-dione], the concentration for half-maximal inhibition (IC50) in assay [1] (setting [3]) was found to be 9.5 µM. For the same compound, in assay [2] (Hepatitis C virus, Huh-7, 72 h), the EC50 amounted to 4.3 µM.

`O=C1Cn2c(-c3ccc(O)cc3)c(C3CCCCC3)c3ccc(cc32)C(=O)NCCCCCCN1` [Cpd 8]: the IC50 in assay [1] (setting [3]) was 2.79 µM. In addition, the EC50 in assay [2] is > 32 µM.

(Values after patent publication US8524716B2, “Macrocyclic indoles as hepatitis C virus inhibitors” (priority 2007, dated 2013).)
